The text below walks through data of PMC6272176, “Antileishmanial and Cytotoxic Compounds from Valeriana wallichii and Identification of a Novel Nepetolactone Derivative” (Molecules, 2015).

Like-named read-outs stand apart in the source and are kept apart here. Some results are limits rather than exact numbers.

Data set [1] deals with L. major promastigotes. The data set is described as follows: Antileishmanial activity against L. major promastigotes, AlamarBlue assay. The class given is cell-based, Leishmania major. To be noted: for IC50: Leishmania major, read-out: IC50 (L. major); for antileishmanial activity (in words): verbal rating. As for the experimental part:
(§1) All compounds isolated were subjected to the evaluation of their antileishmanial activity against L. major promastigotes in vitro and cytotoxicity against macrophages (J774.1 murine cell line) using the corresponding AlamarBlue^© assays (cf. Table 2).
(§2) Antileishmanial activity against L. major promastigotes and cytotoxicity against a murine macrophage cell line (J774.1) was determined using an AlamarBlue^© assay. Methods for both procedures have been reported previously. IC50 values are presented as mean values of two experiments.
Background: Resazurin is reduced to fluorescent resorufin, in cell work by metabolically active cells.

Data set [2] relates to J774.1 murine macrophage cell line. The data set is described as follows: Cytotoxicity against macrophages (J774.1), AlamarBlue assay. The class given is cell-based. To be noted: for IC50: Mus musculus; for cytotoxicity (in words): verbal rating. Here is the method:
as §1, §2

Where [3] appears, read: L. major promastigotes in vitro, fractions containing isolated compounds, mean of two experiments.
Where [4] appears, read: J774.1 macrophages, fractions containing isolated compounds, mean of two experiments, read-out: IC50 (J774.1).
The mark [5] stands for this setting: L. major promastigotes in vitro.
Setting [6] is: L. major promastigotes in vitro, values marked *: pure or synthesized compounds, given in µM, mean of two experiments.
Where [7] appears, read: J774.1 macrophages, values marked *: pure or synthesized compounds, given in µM, mean of two experiments, read-out: IC50 (J774.1).
The mark [8] stands for this setting: J774.1 macrophages, fractions containing isolated compounds, mean of two experiments.

As usually defined, the IC50 is the midpoint of a concentration-inhibition curve. For the molecule `C[C@@H]1CC[C@H]2[C@H](CO)COC(=O)[C@H]21` [compound 5, (4R,5S,8R,9S)-4-(Hydroxymethyl)-8-methylhexahydro-cyclopenta[c]pyranone], the IC50 in data set [1] (setting [3]) was greater than 100 µg/mL; in data set [2] (setting [4]), 17.5 µg/mL.
`COc1ccc(C=CC(=O)OC2CC3CCC2(C)C3(C)C)cc1O` (stereo not drawn) [compound 2, bornyl isoferulate]: in data set [1] (setting [5]), the “antileishmanial activity (in words)” value was “moderate antileishmanial activity”. Besides, the IC50 in data set [1] (setting [3]) turned out to be 16.7 µg/mL; in data set [2] (setting [4]), 34.7 µg/mL.
Turning to `CC(C)CC(=O)OC1CC2CCC1(C)C2(C)C` (stereo not drawn) [Bornyl isovalerate (13), bornyl isovalerate], in data set [1] (setting [5]), the “antileishmanial activity (in words)” value is given as “no antileishmanial activity”. The IC50 in data set [1] (setting [6]) and in data set [2] (setting [7]) was greater than 100 µM each time.
Regarding `CC1CCC2(OC3OC(CO)C(O)C(O)C3O)C1C(=O)OC2(C)COC(=O)C=Cc1ccc(O)cc1` [compound 4, {[(3S,4S,7R,8S)-1-Oxo-3,7-dimethyl-4-(O-β-D-glucopyranosyl)oxy]hexahydrocyclopenta[c]furan-3-yl}-methyl-trans-4-hydroxycinnamate], the IC50 in data set [1] (setting [3]) and in data set [2] (setting [4]) was greater than 100 µg/mL in each case.
As to `CC(=O)OC1CC2C(COC(=O)CC(C)C)=COC(OC(=O)CC(C)C)C2C1(O)CCl` (stereo not drawn) [compound 9, valechlorine], the IC50 is 2.3 µg/mL in data set [1] (setting [3]) and 1.9 µg/mL in data set [2] (setting [4]).
pinoresinol [Pinoresinol (17)]: the “IC50 (L. major)” value in data set [1] (setting [3]) is greater than 100 µg/mL. The “antileishmanial activity (in words)” value in data set [1] (setting [5]) is “no antileishmanial activity”. Further, the “IC50 (J774.1)” value in data set [2] (setting [8]) was less than 0.8 µg/mL.
As for `CC1(C)C2CCC1(C)C(OC(=O)C=Cc1ccc(O)c(O)c1)C2` (stereo not drawn) [Bornyl caffeate (1), bornyl caffeate], the “antileishmanial activity (in words)” value in data set [1] (setting [5]) is given as “moderate antileishmanial activity”. Further, the IC50 was 48.8 µM in data set [1] (setting [6]) and 8.3 µM in data set [2] (setting [7]).
For `CC(=O)OC1CC2C(COC(=O)CC(C)C)=COC(OC(=O)CC(C)C)C2C1(O)COC(=O)CC(C)C` (stereo not drawn) [compound 7], the IC50 in data set [1] (setting [3]) is 0.8 µg/mL; in data set [2] (setting [4]), less than 0.8 µg/mL.
As for `COc1cc([C@@H]2c3cc4c(cc3[C@H](O)[C@H]3COC(=O)[C@H]23)OCO4)cc(OC)c1OC` [compound 16, podophyllotoxin], the “antileishmanial activity (in words)” value in data set [1] (setting [5]) was “no antileishmanial activity”. For the same molecule, the IC50 is greater than 100 µg/mL in data set [1] and less than 0.8 µg/mL in data set [2] (J774.1, read-out: IC50 (J774.1)).
On to `CCC(C)CC(=O)OC1OC=C(COC(=O)CC(C)C)C2CC(OC(C)=O)C(O)(COC(=O)C(OC(=O)CC(C)C)C(C)C)C12` (stereo not drawn) [compound 6], for which the IC50 in data set [1] (setting [3]) was 1.9 µg/mL; in data set [2] (setting [4]), less than 0.8 µg/mL.
As to `CC(=O)OCC1=COC(OC(=O)CC(C)C)C2C1=CC(OC(=O)CC(C)C)C2(O)COC(=O)CC(C)C` (stereo not drawn) [compound 8], the results for the IC50 in data set [1] (setting [6]) and in data set [2] (setting [7]) were 1.7 µM and 1 µM, respectively.
As to `COc1cc(C2c3cc4c(cc3C(O)C3COC(=O)C23)OCO4)cc(OC)c1O` (stereo not drawn) [compound 15, 4'-demethylpodophyllotoxin], in data set [1] (setting [3]), the “IC50 (L. major)” value is given as greater than 100 µg/mL. Further, in data set [1] (setting [5]), the “antileishmanial activity (in words)” value was “no antileishmanial activity”. Besides, in data set [2] (setting [8]), the “IC50 (J774.1)” value was less than 0.8 µg/mL.
Take `CC(C)=CCCC(C)C1(O)CC=C(C)CC1` (stereo not drawn) [β-Bisabolol (10), β-bisabolol]: the “antileishmanial activity (in words)” value in data set [1] (setting [5]) was “moderate”. The IC50 is 52.2 µg/mL in data set [1] (setting [3]) and 37.1 µg/mL in data set [2] (setting [4]). Besides, the “cytotoxicity (in words)” value in data set [2] (J774.1 macrophages) is reported as “moderate”.
On to `CCCCCCCCCCCCCCCCOP(=O)([O-])OCC[N+](C)(C)C` [Miltefosine, reference compound], for which the IC50 in data set [2] (setting [7]) came to 56.5 µM.
On to `CC1CC(O)C2C1CC1CCC2(C)OC1(C)C` (stereo not drawn) [α-Kessyl alcohol (11), α-kessyl alcohol], for which the “antileishmanial activity (in words)” value in data set [1] (setting [5]) is “rather good antileishmanial activity”. In addition, the IC50 in data set [1] (setting [3]) stood at 5.8 µg/mL; in data set [2] (setting [4]), 1.7 µg/mL.
As to `CC(C)C1CCC2(C)CCCC(=O)C2(C)C1` (stereo not drawn) [Valeranone (12), valeranone], the “antileishmanial activity (in words)” value in data set [1] (setting [5]) is “moderate”. For the same molecule, the results for the IC50 in data set [1] (setting [3]) and in data set [2] (setting [4]) were 60.8 µg/mL and 42.6 µg/mL, respectively. For the same molecule, the “cytotoxicity (in words)” value in data set [2] (J774.1 macrophages) was “moderate”.
